Converted amounts (≈) assume the structure as drawn. “And” between values parts separate entries of the source, which are not always exact repeats. Equal values may be shown once. Read-outs that look alike come from different tables or passages of the source.
Assays:
[1] = Octanol–water partition coefficient, shake-flask method (OECD Test No. 107); assay type: physicochemical
Procedure: The octanol–water partition coefficients (KOW) of the synthesized products were estimated by the shake-flask method according to the OECD Test No. 107 guidelines (Partition Coefficient n-Octanol/Water: Shake-Flask Method). Measurements were performed using mutually saturated distilled water and 1-octanol in a glass vial containing a magnetic stir bar. First, the synthesized products were dissolved in distilled water (or 1-octanol) at a chosen concentration (0.01 mol per 1 L of octanol or water), and then proper amounts of the second solvent (octanol or water) were added. Subsequently, two duplicate runs were carried out with different solvent ratios: 4 mL of 1-octanol and 2 mL of water (2:1), 4 mL of 1-octanol and 4 mL of water (1:1), and 4 mL of 1-octanol and 8 mL of water ([…]). All vials were shaken at a constant temperature of 25 °C. After 24 h, all samples were centrifuged and the aqueous and octanolic phases were collected with a syringe. The concentrations of compounds in water were determined spectrophotometrically using a Rayleigh UV-1601 spectrophotometer (Beijing Beifen-Ruili Analytical, China) based on calibration curves made previously (at λmax = 262 nm) vs concentration for each substance. Two repetitions of each measurement were performed in a specific solvent ratio (1:1, 1:2, and 2:1). Finally, the log KOW was calculated as the average of six results collected for each compound.
The outermost layer of the skin (stratum corneum) contains around […] water, a relatively low amount compared to the rest of the human body. Given the hydrophobic nature of 1-octanol, it can be used as a simplified model for the stratum corneum.[50] The octanol–water partition coefficient (KOW) value represents the proportion between the concentrations of a substance in both liquid phases of a system composed of water and 1-octanol. […] The log KOW values are given in Figure 6 (exact values are provided in Table S4, Supporting Information).

[2] = Contact angle of aqueous solutions, sessile drop method on paraffin; assay type: physicochemical; details: aqueous solution, 25 °C
Procedure: The contact angle (CA) measurements were carried out using a DSA100S analyzer (Krüss, Germany, accuracy ±0.1°), at 25 °C. The determination of the contact angle was based on the sessile drop method, i.e., drops of the analyzed solution were deposited on a solid surface (paraffin). The images of the drops were taken with a CCD camera, digitized, and evaluated using Young–Laplace fitting. The CA was determined as the slope of the tangent line at the contact point between the 3 phases (solution, paraffin surface, and air).
In the case of seborrheic skin, which occurs among many people affected by acne, the epidermis is covered by a hydrophobic lipid layer, which impedes the penetration of active substances, especially those that are well soluble in water. In addition, ensuring proper drug absorption through the skin can also reduce the risk of side effects and increase the effectiveness of therapy.[72] The addition of surfactants, which improve the wettability of hydrophobic surfaces, can be a solution to this problem.[73],[74] […] Wettability analyses of aqueous solutions of the new APIs were carried out on paraffin, whose hydrophobicity is similar to that of the human skin.[75] Experiments were performed at concentrations corresponding to common NA and SAL contents in commercial formulations (0.25–1.00%).[67],[76],[77] Due to low solubilities of 5–7, tests for these salts were performed at concentrations of 0.25, 0.03, and 0.01%, respectively (please see Figure S43 in the Supporting Information).

Staphylococcus aureus = test: MIC and MBC determination, microdilution method; assay type: cell-based; details: for MIC: 18 h, read-out: MIC, S. aureus; for MBC: read-out: MBC, S. aureus
Procedure: (§1) The antimicrobial activities of the compounds were tested against clinical strains of an aerobic Gram-negative bacterium—Pseudomonas aeruginosa (P. aeruginosa), facultative anaerobic Gram-positive bacteria—Staphylococcus aureus (S. aureus) and Staphylococcus epidermidis (S. epidermidis), anaerobic Gram-positive bacterium—Cutibacterium acnes (C. acnes), and yeast-like fungus—Candida albicans (C. albicans).
(§2) Aerobic and facultative anaerobic bacteria cultures were grown in Brain Heart Infusion broth (BHI, bioMerieux, France) at 35 °C ± 1 °C for 18 h, C. acnes cultures were grown in thioglycolate broth with resazurin (TGB, bioMerieux, France) at 35 ± 1 °C for 48 h, and yeast cultures were grown in Sabouraud dextrose broth (SDB, Merck, Germany) at 35 ± 1 °C for 24 h. After incubation, each culture was diluted in a suitable liquid medium: P. aeruginosa, S. aureus, and S. epidermidis—Mueller–Hinton broth (MHB; Oxoid, UK); C. acnes—TGB; and C. albicans—SDB, to obtain a final suspension containing about 10^6 CFU/mL.
(§3) The microdilution method was employed to determine the compounds’ MIC (Minimal Inhibitory Concentration) and MBC/MFC (Minimal Bactericidal Concentration/Minimal Fungicidal Concentration) against the tested bacterial and fungal strains.
(§4) The compounds were serially diluted (2-fold) in the respective media (P. aeruginosa, S. aureus, and S. epidermidis—MHB, C. acnes—TGB, and C. albicans—SDB in 96-well plates), and the microbial suspensions were added. The compounds were tested in the final concentration range of 4 096 to 0.125 μg/mL, and the final microbial inoculum was approximately 5 ×10^5 CFU/mL. The tests were incubated at 35 °C ± 1 °C for 18 h (P. aeruginosa, S. aureus, and S. epidermidis) or 24 h (C. albicans) or 48 h (C. acnes). C. acnes was incubated in an anaerobic atmosphere using a GENbag anaer (bioMerieux, France). Media (without the strains) added to the different concentrations of tested compounds and media inoculated with microbial suspension were used as a negative control and growth control, respectively.
(§5) The MIC was defined as the lowest concentration at which visible growth was inhibited. MBC and MFC concentrations were determined as an extension of the MIC test. […] The plates were incubated at 35 ± 1 °C for 18–72 h. C. acnes was incubated in an anaerobic atmosphere. The MBC/MFC was defined as the lowest concentration at which no growth was observed. All tests were performed in duplicate.

[3] = system: Staphylococcus epidermidis; test: MIC and MBC determination, microdilution method; assay type: cell-based; details: for MIC: 18 h, read-out: MIC, S. epidermidis; for MBC: read-out: MBC, S. epidermidis
Procedure: as §1, §2, §3, §4, §5

[4] = clinical strain, tested 4 096 to 0.125 μg/mL, b = out of range
[5] = shake-flask, 25 °C, 24 h, average of six results, read-out: Octanol-water partition coefficient (log Kow)

| Structure (SMILES) | logP at 24 h [1] | Contact angle ([2]; concentration 0.25%) | MIC (Staphylococcus aureus; [4]) [µg/mL] | MBC (Staphylococcus aureus; [4]) [µg/mL] | MIC [3, 4] [µg/mL] | MBC [3, 4] [µg/mL] | logP at 24 h [1, 5] | Contact angle ([2]; concentration 0.50%) [°] | Contact angle ([2]; concentration 1.00%) | MIC (Staphylococcus aureus) [µg/mL] | MIC [3] [µg/mL] | MBC (Staphylococcus aureus) [µg/mL] | MBC [3] [µg/mL] |
| --- | --- | --- | --- | --- | --- | --- | --- | --- | --- | --- | --- | --- | --- |
| O=C(O)c1ccccc1O [SAL, salicylic acid, reference compound] | 1.82 | 104.9 ° | 1020 (≈ 7.41 mM) | 1020 (≈ 7.41 mM) | 1020 (≈ 7.41 mM) | 1020 (≈ 7.41 mM) | – | – | – | – | – | – | – |
| CCCCCCCC[n+]1cccc(C(N)=O)c1.O=C([O-])c1ccccc1O [compound 4] | – | 94.1 ° and 94 ° | – | – | – | – | 0.07 | 79.0 | 61.2 ° and 61 ° | 1020 | 2050 | – | – |
| CCCCCCCCCC[n+]1cccc(C(N)=O)c1.O=C([O-])c1ccccc1O [compound 5] | – | 50.7 ° | – | – | – | – | 0.59 | – | – | 256 | 256 | 256 | 256 |
| CCCCCC[n+]1cccc(C(N)=O)c1.O=C([O-])c1ccccc1O [compound 3] | – | 107.0 ° | – | – | – | – | -0.18 | 103.4 | 98.51 ° | 2050 | 4100 | – | – |

Source: publication PMC11372839, “Unraveling the Potential of Vitamin B3-Derived Salts with a Salicylate Anion as Dermal Active Agents for Acne Treatment” (Molecular Pharmaceutics, 2024)
